The results in this text go back to patent US20250163104A1, “MACROCYCLIC IMMUNOMODULATORS” (priority 2021, published 2025).

Molecules are shown by their SMILES. Where a SMILES comes first, the peptide text is derived from it. Bridges are numbered along the chain shown (N, C = ends). [ ]: non-standard residue; d: D form. The star is where a group is joined. ξ: configuration not given here. Phe(4-COOH) = N[C@@H](Cc1ccc(C(=O)O)cc1)C(=O)O; Bip = N[C@@H](Cc1ccc(-c2ccccc2)cc1)C(=O)O; Phe(4-CN) = N#Cc1ccc(C[C@H](N)C(=O)O)cc1; Phe(3-Me) = Cc1cccc(C[C@H](N)C(=O)O)c1; Val(3-OH) = CC(C)(O)[C@H](N)C(=O)O; 4Pal = N[C@@H](Cc1ccncc1)C(=O)O; Cha = N[C@@H](CC1CCCCC1)C(=O)O; Gly(cPr) = N[C@H](C(=O)O)C1CC1; Ile(3ξ) = CCC(C)[C@H](N)C(=O)O; Thr(3ξ) = CC(O)[C@H](N)C(=O)O; Carboxymethyl = O=C(O)C*; Nle = CCCC[C@H](N)C(=O)O; Orn = NCCC[C@H](N)C(=O)O; Pra = C#CC[C@H](N)C(=O)O; Dab = NCC[C@H](N)C(=O)O; Dap = NC[C@H](N)C(=O)O; Piv = CC(C)(C)C(=O)*

One may read the IC50 as the concentration needed to halve the response being measured.

The test addresses T1, human PD-1 / PD-L1-Ig binding on Jurkat cell line over-expressing human PD-1 (Jurkat-PD-1) (Homo sapiens, UniProt Q15116).
T1 construct: expressed in transfected cells; host or cells: Jurkat
As to the kind of experiment: Jurkat-PD-1 Cell Binding High-Content Screening Assay (CBA). It counts as cell-based. Conditions: Jurkat-PD-1 cells, PE-labeled PD-L1-Ig 20 nM final; read-out: Jurkat HPD1_PDL1 IC50. The gist of the method:
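Compounds were preincubated with Jurkat-hPD-1 cells in DMEM plus 10% fetal calf serum for 2 h at 37° C. Phycoerythrin-labeled PD-L1-Ig (20 nM final) was then added for 1 hour. Cells were fixed in 4% paraformaldehyde with Hoechst 33342, and bound fluorescence was quantified by high-content imaging.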

T1 sequence (Q15116 25-288): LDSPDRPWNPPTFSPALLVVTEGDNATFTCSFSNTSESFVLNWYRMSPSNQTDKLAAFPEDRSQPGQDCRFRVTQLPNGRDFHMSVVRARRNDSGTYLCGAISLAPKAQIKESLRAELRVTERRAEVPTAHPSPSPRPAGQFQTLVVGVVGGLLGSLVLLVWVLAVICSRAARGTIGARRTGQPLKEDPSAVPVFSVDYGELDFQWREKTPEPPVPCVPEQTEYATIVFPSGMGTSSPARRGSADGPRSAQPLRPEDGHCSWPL

Take `CC(C)C[C@H]1NC(=O)[C@H](CCCN)NC(=O)[C@H](CCCN)NC(=O)[C@H](Cc2ccc(-c3ccccc3)cc2)NC(=O)[C@H](C(C)C)NC(=O)[C@H](Cc2c[nH]c3ccccc23)NC(=O)[C@H](CC(=O)O)NC(=O)[C@H](Cc2ccc(O)cc2)NC(=O)[C@H](CC(N)=O)NC(=O)CSC[C@@H](C(=O)N[C@@H](C)C(N)=O)NC(=O)[C@H]([C@@H](C)O)NC(=O)[C@H](C(C)C)NC(=O)[C@H](CC2CCCCC2)NC(=O)[C@H](CCN)NC1=O` [Compound 1378] ({CH2CO}-NYDWV[Bip][Orn][Orn][dL][Dab][Cha]VTCA-NH2; thioether N-14): the 50% inhibitory concentration (IC50) was 13.7 nM.

Turning to `CC(C)C[C@H]1NC(=O)[C@H](CCCN)NC(=O)[C@H](CCC(=O)O)NC(=O)[C@H](Cc2ccc(-c3ccccc3)cc2)NC(=O)[C@H](C(C)C)NC(=O)[C@H](Cc2ccc(F)c(F)c2)NC(=O)[C@H](CC(=O)O)NC(=O)[C@H](Cc2ccc(OCC(=O)O)cc2)NC(=O)[C@H](CN)NC(=O)CSC[C@@H](C(=O)N[C@@H](C)C(N)=O)NC(=O)[C@H]([C@@H](C)O)NC(=O)[C@H](C(C)C)NC(=O)[C@H](CC2CCCCC2)NC(=O)[C@H](CCN)NC1=O` [Compound 2148], the concentration for half-maximal inhibition (IC50) came out at 17.5 nM.

For `CC[C@H](C)[C@@H]1NC(=O)[C@H](Cc2ccc(-c3ccccc3)cc2)NC(=O)[C@H](CC(C)C)NC(=O)[C@H](Cc2c[nH]c3ccccc23)NC(=O)[C@H](CC(=O)O)NC(=O)[C@H](Cc2ccc(OCC(=O)O)cc2)NC(=O)[C@H](CN)NC(=O)CSC[C@@H](C(=O)N[C@@H](C)C(N)=O)NC(=O)[C@H]([C@@H](C)O)NC(=O)[C@H](C(C)C)NC(=O)[C@H](CC(C)C)NC(=O)[C@H](CCN)NC(=O)[C@@H](CC(C)C)NC(=O)[C@H](CCCN)NC1=O` [Compound 1370] ({CH2CO}-[Dap]Y(Carboxymethyl)DWL[Bip]I[Orn][dL][Dab]LVTCA-NH2; thioether N-14), the IC50 was determined as 6.4 nM.

`Cc1cccc(C[C@@H]2NC(=O)[C@H](CC(=O)O)NC(=O)[C@H](Cc3ccc(OCC(=O)O)cc3)NC(=O)[C@H](CN)NC(=O)CSC[C@@H](C(=O)N[C@@H](CCNC(=O)C(C)(C)C)C(N)=O)NC(=O)[C@H]([C@@H](C)O)NC(=O)[C@H](C(C)C)NC(=O)[C@H](CC3CCCCC3)NC(=O)[C@H](CCN)NC(=O)[C@@H](CC(C)C)NC(=O)[C@H](CCN)NC(=O)[C@H](Cc3ccc(OCC(=O)O)cc3)NC(=O)[C@H](Cc3ccc(-c4ccccc4)cc3)NC(=O)[C@H](Cc3ccc(OCC(=O)O)cc3)NC2=O)c1` [Compound 2061] ({CH2CO}-[Dap]Y(Carboxymethyl)D[Phe(3-Me)]Y(Carboxymethyl)[Bip]Y(Carboxymethyl)[Dab][dL][Dab][Cha]VTC[Dab](Piv)-NH2; thioether N-14): the IC50 stood at 23.6 nM.

Take `CC(C)C[C@H]1NC(=O)[C@H](CCCN)NC(=O)[C@H](CCCN)NC(=O)[C@H](Cc2ccc(-c3ccccc3)cc2)NC(=O)[C@H](C(C)C)NC(=O)[C@H](Cc2c[nH]c3ccccc23)NC(=O)[C@H](CC(=O)O)NC(=O)[C@H](Cc2ccc(OCC(=O)O)cc2)NC(=O)[C@H](CN)NC(=O)CSC[C@@H](C(=O)N[C@@H](C)C(N)=O)NC(=O)[C@H]([C@@H](C)O)NC(=O)[C@H](C(C)C)NC(=O)[C@H](CC2CCCCC2)NC(=O)[C@H](CCN)NC1=O` [Compound 1374]: the IC50 stood at 9.8 nM.

For the molecule `Cc1cccc(C[C@@H]2NC(=O)[C@H](CC(=O)O)NC(=O)[C@H](Cc3ccc(C#N)cc3)NC(=O)[C@H](C(C)O)NC(=O)CSC[C@@H](C(=O)N[C@@H](CCN)C(N)=O)NC(=O)[C@H](Cc3c[nH]cn3)NC(=O)[C@H](C(C)(C)O)NC(=O)[C@H](CC3CCCCC3)NC(=O)[C@H](CCN)NC(=O)[C@@H](CC(C)C)NC(=O)[C@H](CCCN)NC(=O)[C@H](Cc3ccc(OCC(=O)O)cc3)NC(=O)[C@H](Cc3ccc(-c4ccccc4)cc3)NC(=O)[C@H](Cc3ccc(OCC(=O)O)cc3)NC2=O)c1` (stereo partly drawn) [Compound 2673] ({CH2CO}-[Thr(3ξ)][Phe(4-CN)]D[Phe(3-Me)]Y(Carboxymethyl)[Bip]Y(Carboxymethyl)[Orn][dL][Dab][Cha][Val(3-OH)]HC[Dab]-NH2; thioether N-14), the IC50 came out at 5.8 nM.

As for `CC(C)[C@@H]1NC(=O)[C@H](Cc2c[nH]c3ccccc23)NC(=O)[C@H](CC(=O)O)NC(=O)[C@H](Cc2ccncc2)NC(=O)[C@H](Cc2ccc(OCC(=O)O)cc2)NC(=O)CSC[C@@H](C(=O)N[C@@H](C)C(N)=O)NC(=O)[C@H]([C@@H](C)O)NC(=O)[C@H](C(C)C)NC(=O)[C@H](CC2CCCCC2)NC(=O)[C@H](CCN)NC(=O)[C@@H](Cc2ccccc2)NC(=O)[C@H](CCCN)NC(=O)[C@H](CCC(=O)O)NC(=O)[C@H](Cc2ccc(-c3ccccc3)cc2)NC1=O` [Compound 1434] ({CH2CO}-Y(Carboxymethyl)[4Pal]DWV[Bip]E[Orn][dF][Dab][Cha]VTCA-NH2; thioether N-14), the IC50 is 35.9 nM.

In the case of `CC(C)C[C@H]1NC(=O)[C@H](CCCN)NC(=O)[C@H](CCC(=O)O)NC(=O)[C@H](Cc2ccc(-c3ccccc3)cc2)NC(=O)[C@H](C2CC2)NC(=O)[C@H](Cc2c[nH]c3ccccc23)NC(=O)[C@H](CC(=O)O)NC(=O)[C@H](Cc2ccc(OCC(=O)O)cc2)NC(=O)[C@H](CN)NC(=O)CSC[C@@H](C(=O)N[C@@H](C)C(N)=O)NC(=O)[C@H]([C@@H](C)O)NC(=O)[C@H](C(C)C)NC(=O)[C@H](CC2CCCCC2)NC(=O)[C@H](CCN)NC1=O` [Compound 1716] ({CH2CO}-[Dap]Y(Carboxymethyl)DW[Gly(cPr)][Bip]E[Orn][dL][Dab][Cha]VTCA-NH2; thioether N-14), the 50% inhibitory concentration (IC50) was 24.9 nM.

`CCCC[C@@H]1NC(=O)[C@H](CC(N)=O)NC(=O)[C@@H](CC(C)C)NC(=O)[C@H](CN)NC(=O)[C@H](C(C)C)NC(=O)[C@H](Cc2ccc(-c3ccccc3)cc2)NC(=O)[C@H](CC(C)C)NC(=O)[C@H](Cc2c[nH]c3ccccc23)NC(=O)[C@H](CC(=O)O)NC(=O)[C@H](Cc2ccncc2)NC(=O)[C@H](CN)NC(=O)CSC[C@@H](C(=O)NCC(N)=O)NC(=O)[C@H](CO)NC(=O)[C@H](C(C)C)NC1=O` [Compound 1400] ({CH2CO}-[Dap][4Pal]DWL[Bip]V[Dap][dL]N[Nle]VSCG-NH2; thioether N-14): the IC50 is 29.1 nM.

In the case of `CCC(C)[C@@H]1NC(=O)[C@H](Cc2ccc(-c3ccccc3)cc2)NC(=O)[C@H](C(C)C)NC(=O)[C@H](Cc2c[nH]c3ccccc23)NC(=O)[C@H](CC(=O)O)NC(=O)[C@H](Cc2ccncc2)NC(=O)[C@H](Cc2ccncc2)NC(=O)CSC[C@@H](C(=O)N[C@@H](C)C(N)=O)NC(=O)[C@H]([C@@H](C)O)NC(=O)[C@H](C(C)C)NC(=O)[C@H](CC2CCCCC2)NC(=O)[C@H](CCN)NC(=O)[C@@H](CC(C)C)NC(=O)[C@H](CCCN)NC1=O` (stereo partly drawn) [Compound 2238] ({CH2CO}-[4Pal][4Pal]DWV[Bip][Ile(3ξ)][Orn][dL][Dab][Cha]VTCA-NH2; thioether N-14), the IC50 worked out at 18.2 nM.

As for `C#CC[C@H](NC(=O)[C@H](CCN)NC(=O)[C@@H]1CSCC(=O)N[C@@H](Cc2ccncc2)C(=O)N[C@@H](Cc2ccc(C(=O)O)cc2)C(=O)N[C@@H](CC(=O)O)C(=O)N[C@@H](Cc2cccc(C)c2)C(=O)N[C@@H](Cc2ccc(OCC(=O)O)cc2)C(=O)N[C@@H](Cc2ccc(-c3ccccc3)cc2)C(=O)N[C@@H](Cc2ccc(OCC(=O)O)cc2)C(=O)N[C@@H](CCCN)C(=O)N[C@H](CC(C)C)C(=O)N[C@@H](CCN)C(=O)N[C@@H](CC2CCCCC2)C(=O)N[C@@H](C(C)(C)O)C(=O)N[C@@H](CO)C(=O)N1)C(=O)O` [Compound 2324] ({CH2CO}-[4Pal][Phe(4-COOH)]D[Phe(3-Me)]Y(Carboxymethyl)[Bip]Y(Carboxymethyl)[Orn][dL][Dab][Cha][Val(3-OH)]SC[Dab][Pra]-OH; thioether N-14), the IC50 turned out to be 247 nM.

Turning to `CC(C)C[C@H]1NC(=O)[C@H](CCCN)NC(=O)[C@H](CCC(=O)O)NC(=O)[C@H](Cc2ccc(-c3ccccc3)cc2)NC(=O)[C@H](C(C)C)NC(=O)[C@H](Cc2c[nH]c3ccccc23)NC(=O)[C@H](CC(=O)O)NC(=O)[C@H](Cc2ccc(-c3cccc(C(=O)O)c3)cc2)NC(=O)[C@H](Cc2ccncc2)NC(=O)CSC[C@@H](C(=O)N[C@@H](C)C(N)=O)NC(=O)[C@H]([C@@H](C)O)NC(=O)[C@H](C(C)C)NC(=O)[C@H](CC2CCCCC2)NC(=O)[C@H](CCN)NC1=O` [Compound 2164], the concentration for half-maximal inhibition (IC50) is 8 nM.

For the molecule `CC(C)C[C@H]1NC(=O)[C@H](CCCN)NC(=O)[C@H](CCC(=O)O)NC(=O)[C@H](Cc2ccc(-c3ccccc3)cc2)NC(=O)[C@H](C(C)C)NC(=O)[C@H](Cc2cc(F)c(F)c(F)c2)NC(=O)[C@H](CC(=O)O)NC(=O)[C@H](Cc2ccc(OCC(=O)O)cc2)NC(=O)[C@H](CN)NC(=O)CSC[C@@H](C(=O)N[C@@H](C)C(N)=O)NC(=O)[C@H]([C@@H](C)O)NC(=O)[C@H](C(C)C)NC(=O)[C@H](CC2CCCCC2)NC(=O)[C@H](CCN)NC1=O` [Compound 2149], the half-maximal inhibitory concentration (IC50) turned out to be 41.3 nM.

In the case of `CCC(C)[C@@H]1NC(=O)[C@H](Cc2ccc(-c3ccccc3)cc2)NC(=O)[C@H](C(C)C)NC(=O)[C@H](Cc2cccc(C)c2)NC(=O)[C@H](CC(=O)O)NC(=O)[C@H](Cc2ccc(OCC(=O)O)cc2)NC(=O)[C@H](Cc2ccc(OCC(=O)O)cc2)NC(=O)CSC[C@@H](C(=O)N[C@@H](C)C(N)=O)NC(=O)[C@H](CO)NC(=O)[C@H](C(C)C)NC(=O)[C@H](CC2CCCCC2)NC(=O)[C@H](CCN)NC(=O)[C@@H](CC(C)C)NC(=O)[C@H](CCCN)NC1=O` (stereo partly drawn) [Compound 2534], the half-maximal inhibitory concentration (IC50) was found to be 21.3 nM.

With `CC(C)C[C@@H]1NC(=O)[C@H](CCN)NC(=O)[C@@H](CC(C)C)NC(=O)[C@H](CC(=O)O)NC(=O)[C@H](C(C)C)NC(=O)[C@H](Cc2ccc(-c3ccccc3)cc2)NC(=O)[C@H](C(C)C)NC(=O)[C@H](Cc2c[nH]c3ccccc23)NC(=O)[C@H](CC(=O)O)NC(=O)[C@H](Cc2ccc(O)cc2)NC(=O)[C@H](CC(N)=O)NC(=O)CSC[C@@H](C(=O)N[C@@H](C)C(N)=O)NC(=O)[C@H]([C@@H](C)O)NC(=O)[C@H](C(C)C)NC1=O` [Compound 1033] ({CH2CO}-NYDWV[Bip]VD[dL][Dab]LVTCA-NH2; thioether N-14), the IC50 is 29.4 nM.
